Measured values as given in the supplement of paper PMC10307832.

Legend:
Experiment in all cases: relative viability (nuclei count vs DMSO), 5 days (fraction); higher = more cells survive
NCI-H322M = test system: NCI-H322M
In short: (§1)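 Relative viability equals treated-well nuclei counts divided by vehicle-well nuclei counts. Counts came from 4× images of lung cancer cell lines grown in 1536-well plates for 5 days after pin-tool dosing on the day after seeding. Dosing used one drug alone or a fixed anchor-drug dose plus five library-drug doses (not always all listed) in √10 steps, and values are medians of duplicate plates.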

NCI-H2009 = test system: NCI-H2009
In short: as §1

NCI-H647 = test system: NCI-H647
In short: as §1

EMC-BAC-2 = test system: EMC-BAC-2
In short: as §1

NCI-H727 = test system: NCI-H727
In short: as §1

NCI-H2085 = test system: NCI-H2085
In short: as §1

NCI-H2126 = test system: NCI-H2126
In short: as §1

NCI-H1915 = test system: NCI-H1915
In short: as §1

LXF-289 = test system: LXF-289
In short: as §1

NCI-H2023 = test system: NCI-H2023
In short: as §1

PC-14 = test system: PC-14
In short: as §1

In the case of CCN(CC)CCCCNc1ncc2cc(-c3cc(OC)cc(OC)c3)c(NC(=O)NC(C)(C)C)nc2n1 + Cc1nc(Nc2ncc(C(=O)Nc3c(C)cccc3Cl)s2)cc(N2CCN(CCO)CC2)n1 [Dasatinib] (partner 0.075 µM), the relative viability (NCI-H322M; first compound 0.01 µM) is reported as 0.242, the relative viability (NCI-H322M; first compound 0.03162 µM) is reported as 0.246 and the relative viability (NCI-H322M; first compound 0.1 µM) is reported as 0.244. The relative viability (NCI-H322M; first compound 0.3162 µM) was 0.257, the relative viability (NCI-H322M; first compound 1 µM) was 0.237 and the relative viability (NCI-H2009; first compound 0.01 µM) was 0.299. The relative viability (NCI-H2009; first compound 0.03162 µM) was 0.316, the relative viability (NCI-H2009; first compound 0.1 µM) was 0.347 and the relative viability (NCI-H2009; first compound 0.3162 µM) was 0.292. The relative viability (NCI-H2009; first compound 1 µM) was 0.246, the relative viability (NCI-H647; first compound 0.01 µM) was 0.189 and the relative viability (NCI-H647; first compound 0.03162 µM) was 0.174. It also gave a relative viability (NCI-H647; first compound 0.1 µM) of 0.209, a relative viability (NCI-H647; first compound 0.3162 µM) of 0.218 and a relative viability (NCI-H647; first compound 1 µM) of 0.0989. For the same compound, the relative viability (EMC-BAC-2; first compound 0.01 µM) was 0.189, the relative viability (EMC-BAC-2; first compound 0.03162 µM) was 0.359 and the relative viability (EMC-BAC-2; first compound 0.1 µM) was 0.304. It also gave a relative viability (EMC-BAC-2; first compound 0.3162 µM) of 0.348, a relative viability (EMC-BAC-2; first compound 1 µM) of 0.3 and a relative viability (NCI-H727; first compound 0.01 µM) of 0.177. For the same compound, the relative viability (NCI-H727; first compound 0.03162 µM) was 0.424, the relative viability (NCI-H727; first compound 0.1 µM) was 0.385 and the relative viability (NCI-H727; first compound 0.3162 µM) was 0.507. The relative viability (NCI-H727; first compound 1 µM) was 0.351, the relative viability (NCI-H2085; first compound 0.01 µM) was 0.251 and the relative viability (NCI-H2085; first compound 0.03162 µM) was 0.181. It also gave a relative viability (NCI-H2085; first compound 0.1 µM) of 0.278, a relative viability (NCI-H2085; first compound 0.3162 µM) of 0.231 and a relative viability (NCI-H2085; first compound 1 µM) of 0.216. For the same compound, the relative viability (NCI-H2126; first compound 0.01 µM) was 0.586, the relative viability (NCI-H2126; first compound 0.03162 µM) was 0.603 and the relative viability (NCI-H2126; first compound 0.1 µM) was 0.648. The relative viability (NCI-H2126; first compound 0.3162 µM) was 0.77, the relative viability (NCI-H2126; first compound 1 µM) was 0.53 and the relative viability (NCI-H1915; first compound 0.01 µM) was 0.303. For the same compound, the relative viability (NCI-H1915; first compound 0.03162 µM) was 0.306, the relative viability (NCI-H1915; first compound 0.1 µM) was 0.361 and the relative viability (NCI-H1915; first compound 0.3162 µM) was 0.286. For the same compound, the relative viability (NCI-H1915; first compound 1 µM) was 0.297, the relative viability (LXF-289; first compound 0.01 µM) was 0.209 and the relative viability (LXF-289; first compound 0.03162 µM) was 0.249. For the same compound, the relative viability (LXF-289; first compound 0.1 µM) was 0.266, the relative viability (LXF-289; first compound 0.3162 µM) was 0.167 and the relative viability (LXF-289; first compound 1 µM) was 0.0987. The relative viability (NCI-H2023; first compound 0.01 µM) was 0.548, the relative viability (NCI-H2023; first compound 0.03162 µM) was 0.675 and the relative viability (NCI-H2023; first compound 0.1 µM) was 0.657. It also gave a relative viability (NCI-H2023; first compound 0.3162 µM) of 0.571, a relative viability (NCI-H2023; first compound 1 µM) of 0.493 and a relative viability (PC-14; first compound 0.01 µM) of 0.263. For the same compound, the relative viability (PC-14; first compound 0.03162 µM) was 0.268, the relative viability (PC-14; first compound 0.1 µM) was 0.276 and the relative viability (PC-14; first compound 0.3162 µM) was 0.264. For the same compound, the relative viability (PC-14; first compound 1 µM) was 0.162.
